SMILES strings stand for the structures. Calls of active or inactive are those of the source. How the calls were made is not given here.

In general, IC50 refers to the concentration that gives 50% inhibition.

Assay [1] can be described thus: polymyxin IC50 shift, round 3, mechanism study, late-stage follow-up (AID 449740). Particulars: Salmonella Typhi WT vs phoP-, polymyxin IC50 shift, OD600 24 h, at 150 µM, stronger effect = higher value.
For assay [2], the system named is Salmonella Typhi WT vs phoP-, polymyxin IC50 shift, OD600 24 h. The description is as above.
The mark [3] stands for this setting: measured here: phoP- strain shift.
Setting [4] is: measured here: wild-type strain shift.

Consider `S=C(NCCc1ccc(Cl)cc1)Nc1ccncc1`, for which the polymyxin IC50 shift difference WT minus phoP- in assay [1] is -1.02 (inactive). The polymyxin IC50 shift in assay [1] (setting [3]) worked out at 6.57; in assay [1] (setting [4]), 5.55.

For `CCn1cc(C(=O)O)c(=O)c2cc(F)c(N3CCN(C(=S)Nc4ccccc4OC)CC3)cc21`, the results for the polymyxin IC50 shift in assay [1] (setting [3]) and in assay [1] (setting [4]) were -0.353 and 4.08, respectively. Moreover, in assay [2], the IC50 was 19 µM.

In the case of `CCn1cc(C(=O)O)c(=O)c2cc(F)c(N3CCN(C(=S)Nc4ccccc4C)CC3)cc21`, the polymyxin IC50 shift in assay [1] (setting [3]) was -2.44; in assay [1] (setting [4]), 4.87. The IC50 in assay [2] is 19 µM.

On to `O=C(Nc1ccc(I)cc1)N1CCCN(Cc2ccccc2F)C1`, for which, in assay [1], the polymyxin IC50 shift difference WT minus phoP- is -9.38 (inactive). Also, the figures for the polymyxin IC50 shift in assay [1] (setting [3]) and in assay [1] (setting [4]) were 5.34 and -4.04, respectively.

Consider `O=C(Nc1ccc(Cl)cc1)N1CCCN(Cc2ccc(Br)cc2)C1`, for which, in assay [1], the polymyxin IC50 shift difference WT minus phoP- is -3.85 (inactive). Also, the polymyxin IC50 shift is 0.497 in assay [1] (setting [3]) and -3.36 in assay [1] (setting [4]).

Turning to `O=C(Nc1ccc(Cl)cc1)N1CCCN(Cc2ccccc2Br)C1`, the polymyxin IC50 shift difference WT minus phoP- in assay [1] was -0.534 (inactive). Further, the polymyxin IC50 shift in assay [1] (setting [3]) stood at 6.73; in assay [1] (setting [4]) it was 6.2.
